In patent US20220257774A1, “AROMATIC AMINE AR AHD BET TARGETING PROTEIN DEGRADATION CHIMERA COMPOUND AND USE” (HINOVA PHARMACEUTICALS INC., priority 2019, published 2022):
Like-named read-outs stand apart in the source and are kept apart here.

Legend:
Type in all cases: cell-based
BRD4 = target: T1, BRD4 (Homo sapiens, UniProt O60885); experiment: Down-regulation/degradation of BRD4 determined by Western blot in CWR22RV1 cells; settings: concentration 100 nM, 24 h
T1 construct: CWR22RV1 cells were subcultured in cell culture media; endogenous in cells; host or cells: CWR22RV1 cells
Procedure: (§1) The Down-Regulation on the Protein Expression of Androgen Receptors AR and Brd4 Determined by Western Blot CWR22RV1 cells (National Collection of Authenticated Cell Cultures. TCHu100) FBS (Gibco, Cat. No. 10099-141) 0.01M PBS (Biosharp. Cat. No. 162262) RIPM1640 (Hyclone, Cat. No. 308090.01) Penicillin-Streptomycin (Hyclone. Cat. No. SV30010) DMSO (Sigma. Cat. No. D5879) Centrifuge tube, 15 ml (Excell Bio. Cat. No. CS015-0001) Cell culture plate (Excell Bio. Cat. No. CS016-0128) 6-well cell culture cluster (Corning, Cat. No. 3516) RIPA lysate buffer (Beyotime, Cat. No. P0013B) Protein loading buffer (Beyotime, Cat. No. P0015L) CA protein assay kit (Beyotime, Cat. No. P0012) SDS-PAGE gel preparation kit (Chengdu Baihe Technology Co., Ltd. Cat. No. PG112) Anti-β-tubulin mouse mAb (Zen Bioscience, Cat. No. 200608) Androgen Receptor ([…]) XP Rabbit mAb (CST. Cat. No. 5153) Anti-cMyc(D3N8F) Rabbit mAb (CST. Cat. No. 13987) Anti-BRD4(E2A7X) rabbit mAb (CST, Cat. No. 13440) Peroxidase Affinipure(HRP) Goat Anti-Mouse IgG (Zen Bioscience, Cat. No. 511103) Peroxidase Affinipure(HRP) Goat Anti-Rabbit IgG (Zen Bioscience, Cat. No. 511203) TBST (Biosharp. Cat. No. B[…]) ECL chemiluminescence kit (Beyotime, Cat. No. […]1 cells were subcultured in cell culture media, and then the cells in good growth condition were seeded in a 6-well plate at 2 ml/well (1×10^6 cells/well), and cultured overnight in a 37° C., 5% CO2 cell incubator. 2) The drug was prepared as a 10 mM stock solution with dimethyl sulfoxide (DMSO). […] The plate was gently tapped to thoroughly mix. In addition, the experiment included negative control wells (containing equal amount of DMSO) and positive control wells. 3) After culturing 24 hi, the cells were lysed with RIPA cell lysate, and the protein was extracted. […] The first antibody (Androgen Receptor ([…]) XP Rabbit mAb. Anti-cMyc(D3N8F) Rabbit mAb, Anti-BRD4(E2A7X) rabbit mAb and Anti-β-Tubulin Mouse mAb) was added and incubated overnight at 4° C. The membrane was rinsed with TBST solution three times, 10 min for each time. The secondary antibody (horseradish peroxidase labeled goat anti mouse IgG) was added and incubated at room temperature for 2 h, and then the membrane was washed with TBST solution three times, 10 m for each time. Finally. ECL chemiluminescence solution was added, and then photos were taken with automatic chemiluminescence instrument to collect pictures for analysis.

LNCaP/AR cells = experiment: Inhibition of the proliferation of LNCap/AR cells (CCK-8); settings: read-out: LNCap/AR IC50
Procedure, shortened: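 Proliferation was read by CCK-8 (OD 450 nm, 1 h) after six days of compound exposure. Cells were seeded at 1000 per well overnight, then dosed in duplicate over nine 3-fold steps with a top final concentration of 10 μM in 0.1% DMSO; IC50 was fitted from inhibition curves.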

Androgen receptor (AR) = experiment: Down-regulation/degradation of AR determined by Western blot in CWR22RV1 cells; settings: concentration 100 nM, 24 h
Procedure: as §1

22RV1 cells = experiment: Inhibition of the proliferation of drug-resistant prostate cancer cell 22RV1 (CCK-8); settings: 22RV1 cells (enzalutamide-resistant), same method
Procedure, shortened: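 22RV1 cells, 1000/well in RPMI1640 with 10% FBS, treated in duplicate with 9-point 3-fold dilutions from 10 μM (0.1% DMSO final). After 6 days at 37 °C, CCK-8 added for 1 h and OD450 read. IC50 from dose-response inhibition fit.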

[1] = 144 h, LNCaP/AR cells, 6 days culture, CCK-8
[2] = LNCaP/AR cells, 6 days culture, CCK-8

| SMILES | IC50 (LNCaP/AR cells; [1]) [nM] | IC50 (22RV1 cells; Homo sapiens) [nM] | IC50 (22RV1 cells) [nM] | IC50 (LNCaP/AR cells; [2]) [nM] | BRD4 (% degradation) (BRD4) | AR (% degradation) (Androgen receptor (AR)) | IC50 (LNCaP/AR cells; LNCaP/AR, 144 h) [nM] |
| --- | --- | --- | --- | --- | --- | --- | --- |
| Cc1ccc(-c2c(C)noc2C)cc1N(CCCCCOCC(=O)N[C@H](C(=O)N1C[C@H](O)C[C@H]1C(=O)N[C@@H](C)c1ccc(-c2scnc2C)cc1)C(C)(C)C)c1ccc(-n2ccnc2)c(Br)c1 [Compound 10, (2S,4R)-1-((S)-2-(2-((5-((3-bromo-4-(1H-imidazol-1-yl)phenyl)(5-(3,5-dimethylisoxazol-4-yl)-2-methylphenyl)amino)n-pentyl)oxy)acetylamino)-3,3-dimethylbutyryl)-4-hydroxy-N—((S)-1-(4-(4-methylthiazol-5-yl)phenyl)ethyl)pyrrolidinyl-2-formamide] | < 100 | – | – | – | B (79%-50% of the target protein was degraded) | B (79%-50% of the target protein was degraded) | – |
| Cc1ccc(-c2c(C)noc2C)cc1N(CCCCCNc1ccc2c(c1)CN(C1CCC(=O)NC1=O)C2=O)c1ccc(C#N)c(Cl)c1 (stereo not drawn) [Compound 63, 2-chloro-4-((5-(3,5-dimethylisoxazol-4-yl)-2-methylphenyl)(5-((2-(2,6-dioxopiperidin-3-yl)-1-oxoisoindolin-5-yl)amino)pentyl)amino)benzonitrile] | – | < 100 | – | – | C (49%-20% of the target protein was degraded) | C (49%-20% of the target protein was degraded) | < 100 |
| Cc1ccc(-c2c(C)noc2C)cc1N(c1ccc(C2(C#N)CC2)cc1)C1CN([C@H]2C[C@H](Nc3cc4c(cc3F)CN([C@@H]3CCC(=O)NC3=O)C4=O)C2)C1 [Compound 70] | – | – | < 100 | 501 to 2000 | C (49%-20% of the target protein was degraded) | C (49%-20% of the target protein was degraded) | – |
| Cc1ccc(-c2c(C)noc2C)cc1N(CCCCCNc1ccc2c(c1)C(=O)N(C1CCC(=O)NC1=O)C2=O)c1ccc(C2(C#N)CC2)cc1 (stereo not drawn) [Compound 147, 1-(4-((5-(3,5-Dimethylisoxazol-4-yl)-2-methylphenyl)(5-((2-(2,6-dioxopiperidin-3)-1,3-dicarbonylisoindolin-5))amino)pentyl)amino)phenylcyclopropanecarbonitrile] | < 100 | – | – | – | A (>80% of the target protein was degraded) | C (49%-20% of the target protein was degraded) | – |
| Cc1ccc(-c2c(C)noc2C)cc1N(C[C@H]1C[C@@H]1CNc1ccc2c(c1)CN(C1CCC(=O)NC1=O)C2=O)c1ccc(C2(C#N)CC2)cc1 (stereo partly drawn) [Compound 187] | > 2000 | 501 to 2000 | – | – | – | – | – |
| Cc1ccc(-c2c(C)noc2C)cc1N(CC(C)OC1CCN(c2cc3c(cc2F)C(=O)N(C2CCC(=O)NC2=O)C3=O)CC1)c1ccc(C2(C#N)CC2)cc1 (stereo not drawn) [Compound 188] | 501 to 2000 | 101 to 500 | – | – | – | – | – |
| Cc1ccc(-c2c(C)noc2C)cc1N(CCC(C)CCNc1cc2c(cc1F)C(=O)N(C1CCC(=O)NC1=O)C2=O)c1ccc(C2(C#N)CC2)cc1 (stereo not drawn) [Compound 189, 1-(4-((5-(3,5-dimethylisoxazol-4-yl)-2-methylphenyl)(5-((2-(2,6-dioxopiperidin-3-yl)-6-fluoro-1,3-dioxoisoindolin-5-yl)amino)-3-methylpentanyl)amino)phenyl)cyclopropane-1-carbonitrile] | > 2000 | 501 to 2000 | – | – | – | – | – |
| Cc1ccc(-c2c(C)noc2C)cc1N(CCC(C)CCNc1cc2c(cc1F)CN(C1CCC(=O)NC1=O)C2=O)c1ccc(C2(C#N)CC2)cc1 (stereo not drawn) [Compound 190, 1-(4-((5-(3,5-dimethylisoxazol-4-yl)-2-methylphenyl)(5-((2-(2,6-dioxopiperidin-3-yl)-6-fluoro-3-oxoisoindolin-5-yl)amino)-3-methylpentanyl)amino)phenyl)cyclopropane-1-carbonitrile] | > 2000 | > 2000 | – | – | – | – | – |
| Cc1ccc(-c2c(C)noc2C)cc1N(CCC(C)CCNc1cc2c(cc1F)C(=O)N(C1CCC(=O)NC1=O)C2)c1ccc(C2(C#N)CC2)cc1 (stereo not drawn) [Compound 191, 1-(4-((5-(3,5-dimethylisoxazol-4-yl)-2-methylphenyl)(5-((2-(2,6-dioxopiperidin-3-yl)-6-fluoro-1-oxoisoindolin-5-yl)amino)-3-methylpentanyl)amino)phenyl)cyclopropane-1-carbonitrile] | > 2000 | 501 to 2000 | – | – | – | – | – |

Further lines, with some results ahead:

| IC50 (LNCaP/AR cells; [1]) [nM] | IC50 (22RV1 cells; Homo sapiens) [nM] | IC50 (22RV1 cells) [nM] | IC50 (LNCaP/AR cells; [2]) [nM] | SMILES | BRD4 (% degradation) (BRD4) | AR (% degradation) (Androgen receptor (AR)) | IC50 (LNCaP/AR cells; LNCaP/AR, 144 h) [nM] |
| --- | --- | --- | --- | --- | --- | --- | --- |
| 501 to 2000 | 101 to 500 | – | – | Cc1ccc(-c2c(C)noc2C)cc1N(CC1CC(Nc2cc3c(cc2F)C(=O)N(C2CCC(=O)NC2=O)C3=O)C1)c1ccc(C2(C#N)CC2)cc1 (stereo not drawn) [Compound 37] | D (<20% of the target protein was degraded) | D (<20% of the target protein was degraded) | – |
| 501 to 2000 | < 100 | – | – | Cc1ccc(-c2c(C)noc2C)cc1N(CC1CC(Nc2cc3c(cc2F)C(=O)N(C2CCC(=O)NC2=O)C3)C1)c1ccc(C2(C#N)CC2)cc1 (stereo not drawn) [Compound 39] | C (49%-20% of the target protein was degraded) | C (49%-20% of the target protein was degraded) | – |
| 501 to 2000 | < 100 | – | – | Cc1ccc(-c2c(C)noc2C)cc1N(CCCCNc1cc2c(cc1F)C(=O)N(C1CCC(=O)NC1=O)C2)c1ccc(C2(C#N)CC2)cc1 (stereo not drawn) [Compound 43, 1-(4-((5-(3,5-Dimethylisoxazol-4-yl)-2-methylphenyl)(4-((2-(2,6-dioxopiperidin-3-yl)-6-fluoro-1-oxoisoindolin-5-yl)amino)butyl)amino)phenyl)cyclopropane-1-nitrile] | C (49%-20% of the target protein was degraded) | B (79%-50% of the target protein was degraded) | – |
| – | – | < 100 | < 100 | Cc1ccc(-c2c(C)noc2C)cc1N(c1ccc(C2(C#N)CC2)cc1)C1CN([C@H]2C[C@@H](Nc3cc4c(cc3F)CN([C@H]3CCC(=O)NC3=O)C4=O)C2)C1 [Compound 68, 1-(4-((5-(3,5-dimethylisoxazol-4-yl)-2-methylphenyl)(1-((1s,3s)-3-((2-(2,6-dioxopiperidin-3-yl)-6-fluoro-3-oxoisoindolin-5-yl)amino)cyclobutyl)azetidin-3-yl)amino)phenyl)cyclopropane-1-nitrile] | A (>80% of the target protein was degraded) | D (<20% of the target protein was degraded) | – |
| < 100 | – | – | – | Cc1ccc(-c2c(C)noc2C)cc1N(CCCCCNc1ccc2c(c1)CN(C1CCC(=O)NC1=O)C2=O)c1ccc(C2(C#N)CC2)cc1 (stereo not drawn) [Compound 145, 1-(4-((5-(3,5-dimethylisoxazol-4-yl)-2-methylphenyl)(5-((2-(2,6-dioxopiperidin-3)-1-isoindolinone-5-yl))amino)pentyl)amino)phenylcyclopropanecarbonitrile] | C (49%-20% of the target protein was degraded) | C (49%-20% of the target protein was degraded) | – |
| 501 to 2000 | < 100 | – | – | Cc1ccc(-c2c(C)noc2C)cc1N(CCC(C)CCNc1ccc2c(c1)C(=O)N(C1CCC(=O)NC1=O)C2=O)c1ccc(C2(C#N)CC2)cc1 (stereo not drawn) [Compound 192, 1-(4-((5-(3,5-dimethylisoxazol-4-yl)-2-methylphenyl)(5-((2-(2,6-dioxopiperidin-3-yl)-1,3-dioxoisoindolin-5-yl)amino)-3-methylpentanyl)amino)phenyl)cyclopropane-1-carbonitrile] | – | – | – |
